Measured values taken from patent publication US11458212B2, “Molecular imaging of cancer cells in vivo” (H. Lee Moffitt Cancer Center and Research Institute, Inc., priority 2011, dated 2022).
“Also recorded” adds a separate entry of the source.

Experiments:
[1] = molecular target: T1, TLR2 (Homo sapiens, UniProt O60603); test: In cyto europium TRF competition binding assay; design: ATCC (SU.86.86 CRL-1837, Capan-I HTB-79); SU.86.86 and Capan-I express TLR2 endogenously
Experimental: Europium TRF binding assays were performed as previously described with slight modifications using 3 cell lines that express TLR2: HEK-293/hTLR2, SU.86.86, and Capan-I.[23a, 23d, 29] The Capan-I and SU.86.86 cells were plated in 96-well black plates with white opaque wells (PerkinElmer); while the HEK-293/hTLR2 cells were plated on 96-well poly-D-lysine coated plates (Sigma-Aldrich) to aid in the attachment of these cells to the plate. Cells were grown in the 96-well plates for 2 days reaching approximately 80% confluency. Both types of plates were evaluated for nonspecific binding and background signal.
Competition binding assays were performed to test the TLR2 binding specificity of the test ligands using 2 cell lines: HEK-293/hTLR2 and SU.86.86. Cells were grown in 96-well plates for 2 days reaching approximately 80% confluency. On the day of the experiment, the cell culture media was aspirated and 50 μL of non-labeled test ligand was added in a series of decreasing concentrations (1 μM to 0.01 nM) followed by 50 μL of the competing Eu-labeled ligand 10 at a fixed concentration of 90 nM. Cells were incubated with labeled and unlabeled ligands for 1 h at 37° C. […] Cells were incubated for 30 min at 37° C. prior to reading. The plates were read on PerkinElmer VICTOR X4 Multilabel reader using the standard europium TRF protocol. […]

[2] = molecular target: T1, TLR2; test: In vitro TLR2 functional bioassay (NF-κB luciferase, HEK293/hTLR2 cells); format: cell-based; design: host or cells: HEK293 stably transfected with pUNO-hTLR2, transiently transfected with the pNifty-Luc reporter; conditions: dose-response 0.001 ng/mL to 10 μg/mL; read-out: TLR2 Agonist Activity EC50
Source text: In Vitro TLR2 Functional Bioassay The in vitro TLR2 functional bioassay was developed and optimized for use in screening soluble compound libraries to identify both TLR2 agonists and antagonists. In this study, the TLR2 functional bioassay was used as a fast high throughput screening to identify TLR2 agonist ligands by measuring the inducing activity of NF-κB. HEK293/hTLR2 cells, highly overexpressing human TLR2, were used along with the parental HEK293, cells as a negative control. Cells were seeded at a density of 40,000 per well using a WellMate® Microplate dispenser (Thermo Fischer Scientific/Matrix) in black 96-well plates with opaque white wells (Perkin Elmer Wallac, Waltham, Mass.) and then incubated at 37° C. On day 2, the cells were transiently transfected with pNifty-Luc (InvivoGen), an NF-κB inducible reporter plasmid expressing the luciferase reporter gene (Zuany-Amorim, C., J., et al. Nat Rev Drug Discov, 2002. 1(10):797-807), using an optimized 4:1 ratio by volume of Fugene® HD Transfection Reagent (Roche Applied Science, Indianapolis, Ind.) to pNifty-Luc plasmid DNA (1 μg/mL). […] On day 4 after 24 hrs of peptide stimulation, luciferase induced activity by the induction of NF-κB was measured. Media was aspirated from the wells using an ELx405 Select plate washer (BioTek, Winooski, Vt.), 150 μg/mL D-luciferin (Gold Biotechnology, St. Louis, Mo.) was dispensed using the microplate dispensor; the plates were incubated at 37° C. for 5 min. The luminescence intensity was measured using the standard luminescence protocol on a Victor™ X4 plate-reader equipped with a plate stacker for readout of multiple plates at a time (PerkinElmer, Waltham, Mass.). For each in vitro TLR2 bioassay, at least three different experiments were performed in triplicate (n=3+). Data were analyzed with GraphPad Prism software and curves were generated with the appropriate nonlinear fit regression analysis.
The in vitro TLR2 functional bioassay was developed and optimized for use in high-throughput screening of soluble compound libraries to identify both TLR2 agonists and antagonists. The bioassay measures the induction of NF-κB signaling via TLR2 in HEK-293/hTLR2 cells and parental HEK-293 cells as a negative control. Cells were seeded at a density of 40,000 per well using a WellMate Microplate dispenser (Thermo Fisher Scientific/Matrix) in black 96-well plates with opaque white wells (PerkinElmer, Waltham, Mass.) and then incubated at 37° C. On day 2, the cells were transiently transfected with pNifty-Luc (InvivoGen, San Diego, Calif.), an NF-κB inducible reporter plasmid expressing the luciferase reporter gene[28] using an optimized 4:1 ratio by volume of FugeneHD Transfection Reagent (Promega, Madison, Wis.) to pNifty-Luc plasmid DNA (1 μg/mL). […] […] On day 4 after 24 h of peptide stimulation, luciferase induced activity by the induction of NF-κB was measured. Media was aspirated from the wells using an ELx405 Select CW plate washer (BioTek, Winooski, Vt.), 150 μg/mL D-luciferin (Gold Biotechnology, St. Louis, Mo.) was dispensed using the microplate dispensor; the plates were incubated at 37° C. for 5 min. The luminescence intensity was measured using the standard luminescence protocol on a Victor X4 Multilabel plate reader equipped with a plate stacker for readout of multiple plates at a time (PerkinElmer, Waltham, Mass.). […] Data were analyzed with GraphPad Prism software and curves were generated with the appropriate nonlinear fit regression analysis.

[3] = tested on: orthotopic pancreatic tumors; test: FL guided intraoperative surgical removal of orthotopic pancreatic tumors; format: in vivo, mice; conditions: 24 h post-injection, data not shown
Source text: Improved survival rates for pancreatic cancer are associated with the complete surgical resection of tumor resulting in a tumor-free margin (R0). New methods employing intraoperative fluorescence (FL) guided tumor detection could lead to increased R0 margins and improved survival. We have reported Toll-like receptor 2 (TLR2) as a bona fide cell-surface marker for pancreatic adenocarcinoma. We then developed a high-affinity TLR2 binding ligand conjugated to a near-infrared (NIR) fluorescent dye, IR800CW, as a targeted molecular imaging probe for the intraoperative detection of surgical margins. To evaluate the in vivo pharmacokinetics and biodistribution of compound 13, FL imaging was performed on multiple optical imaging systems (PerkinElmer IVIS 200 and FMT2500XL, and ART Optix MX3) using TLR2 expressing pancreatic tumor xenograft mouse models (subcutaneous and orthotopic). […] Prior to surgery, the orthotopic pancreatic tumor volumes were monitored weekly and measured in vivo by 3D ultrasound imaging. […]

[4] = tested on: TLR2 expressing tumor xenografts (SU.86.86 cells); test: In vivo TLR2 selectivity / tumor retention fluorescence imaging; design: species or system nude mice; conditions: for retention of fluorescence signal in tumor: 24 h post injection
Experimental: Female athymic nude mice 6-8 weeks old (Harlan) bearing human pancreatic tumor xenografts consisting of SU.86.86 cells on the right flank were used for this study. Mouse weights and tumor volumes were determined using caliper measurements and the formula: volume (mm3)=(length×width^2)/2. Images were acquired when the tumors reached an average size of 500 mm^3. For the blocked group, a co-injection of 100 nmol/kg of the fluorescently labeled compound 13 plus 2 μmol/kg Pam2CSK4 (a 20-fold excess) was administered via tail vein injection; for the unblocked group, 100 nmol/kg 13 was administered. Fluorescence images were acquired at time 0 and 24 h using the Caliper Xenogen IVIS200 system (PerkinElmer) with the 710-760 nm excitation and 810-875 nm emission filter set. The fluorescence was quantified using Living Image software, in which the quantified signals were corrected for both instrument and mouse background subtractions. The quantified fluorescence was then plotted using GraphPad Prism software and underwent statistical analysis using Student's t-test.
For further confirmation of ligand 13 specificity for TLR2, ex vivo fluorescence imaging and histological analyses were performed on the tumors. For histological analyses the samples were fixed in 10% formalin solution, processed, embedded, sectioned and either H&E stained for the presence of tumor or underwent IHC staining using TLR2 antibody (Abcam #ab24192).

[5] = tested on: TLR2 expressing tumor xenografts (SU.86.86 cells); test: as above; design: species or system nude mice

T1 sequence (O60603 21-784): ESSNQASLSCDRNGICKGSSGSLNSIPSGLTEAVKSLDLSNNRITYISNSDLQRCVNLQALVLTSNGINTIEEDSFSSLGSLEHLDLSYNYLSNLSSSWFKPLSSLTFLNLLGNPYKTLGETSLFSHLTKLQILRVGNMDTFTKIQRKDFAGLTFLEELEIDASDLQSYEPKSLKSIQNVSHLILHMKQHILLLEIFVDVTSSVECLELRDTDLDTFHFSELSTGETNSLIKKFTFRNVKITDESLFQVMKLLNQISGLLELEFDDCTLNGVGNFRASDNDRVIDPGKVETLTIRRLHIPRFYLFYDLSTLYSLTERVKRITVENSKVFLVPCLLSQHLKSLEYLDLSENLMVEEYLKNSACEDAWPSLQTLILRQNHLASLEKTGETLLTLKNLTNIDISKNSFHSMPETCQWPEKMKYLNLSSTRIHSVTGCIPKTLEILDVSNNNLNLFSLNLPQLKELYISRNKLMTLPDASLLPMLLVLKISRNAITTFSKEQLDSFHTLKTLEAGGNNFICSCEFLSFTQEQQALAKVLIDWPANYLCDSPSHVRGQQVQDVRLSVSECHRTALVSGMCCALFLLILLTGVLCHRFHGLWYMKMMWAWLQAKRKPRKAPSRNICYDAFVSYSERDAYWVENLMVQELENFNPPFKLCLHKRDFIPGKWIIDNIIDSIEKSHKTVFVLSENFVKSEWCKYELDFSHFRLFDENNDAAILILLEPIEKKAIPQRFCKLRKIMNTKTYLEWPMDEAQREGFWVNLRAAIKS
T1 sequence (Q9Y2C9 32-796 partner): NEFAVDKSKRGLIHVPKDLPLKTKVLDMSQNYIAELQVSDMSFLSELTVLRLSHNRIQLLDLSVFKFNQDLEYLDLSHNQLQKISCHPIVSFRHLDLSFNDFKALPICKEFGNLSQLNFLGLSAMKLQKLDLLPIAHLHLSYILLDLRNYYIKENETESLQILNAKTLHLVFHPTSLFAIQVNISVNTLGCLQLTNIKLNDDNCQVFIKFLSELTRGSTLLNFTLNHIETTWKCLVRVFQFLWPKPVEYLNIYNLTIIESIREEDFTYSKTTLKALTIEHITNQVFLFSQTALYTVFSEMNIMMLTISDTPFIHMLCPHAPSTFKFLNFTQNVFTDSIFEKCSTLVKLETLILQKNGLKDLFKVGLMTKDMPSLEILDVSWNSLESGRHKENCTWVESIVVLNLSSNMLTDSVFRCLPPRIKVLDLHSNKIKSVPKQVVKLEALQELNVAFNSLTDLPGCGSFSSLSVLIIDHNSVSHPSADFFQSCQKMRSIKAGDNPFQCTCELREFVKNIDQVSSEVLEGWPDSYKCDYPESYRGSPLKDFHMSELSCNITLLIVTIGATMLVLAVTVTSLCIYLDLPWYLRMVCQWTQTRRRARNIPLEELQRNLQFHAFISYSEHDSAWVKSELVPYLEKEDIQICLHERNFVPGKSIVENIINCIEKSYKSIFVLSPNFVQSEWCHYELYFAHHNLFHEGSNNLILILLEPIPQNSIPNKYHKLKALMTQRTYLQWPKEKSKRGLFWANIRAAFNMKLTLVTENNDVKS

CCCCCCCCCCCCCCCC(=O)OC[C@H](CSC[C@H](NC(=O)COCC(=O)NCCCOCCOCCOCCCNC(=O)CCSC1CC(=O)N(CCNC(=O)CCCCC[N+]2=C(/C=C/C3=C(Oc4ccc(S(=O)(=O)[O-])cc4)C(=C/C=C4/N(CCCCS(=O)(=O)O)c5ccc(S(=O)(=O)O)cc5C4(C)C)/CCC3)C(C)(C)c3cc(S(=O)(=O)O)ccc32)C1=O)C(=O)NCC(=O)N[C@H](CO)C(=O)NCCCOCCOCCOCCCNC(=O)COCC(N)=O)OC(=O)CCCCCCCCCCCCCCC (stereo partly drawn) [Compound 13, IRDye800CW-Mpr-PEGO-Cys(S-[2,3-bis(palmitoyl)oxy-(R)-propyl])-Gly-DSer-PEGO-NH2]
Ki ([1]; SU.86.86 cells, 90 nM compound 11): 67 nM | Ki ([1]; competitive binding assay, cell line not stated): 11 nM | EC50 [2]: 34 nM | intraoperative fluorescence detection of tumor [3]: intraoperative detection of pancreatic cancer were demonstrated | mean tumor fluorescence unblocked / blocked ([4]; 24 h, 100 nmol/kg 13 ± 2 μmol/kg Pam2CSK4 (20-fold excess), n=8): 1.94 fold | effect of blocking with excess unlabeled ligand on tumor signal ([4]; 24 h, p<0.001): significantly decreased FL signal in the tumor; also recorded: significant reduction in the tumor fluorescence | retention of fluorescence signal in tumor [4]: Fluorescence signal was present in TLR2 expressing pancreatic tumor xenografts; also recorded: retention of fluorescence signal in the tumor | retention of fluorescence signal in tumor ([4]; listed as LiCor IRDye800CW/T-02 conjugate): retained in the tumor at 24 h post injection while the agent had cleared from the animal except for the kidneys | duration of retention in the SU.86.86 tumor ([5]; 10 nmol/Kg dosage): over 96 h | clearance from the kidney ([5]; mouse, in vivo): cleared from the kidney within days of the injection but was retained longer in the tumor | uptake in orthotopic pancreatic tumor xenografts ([5]; orthotopic): taken into and retained in orthotopic pancreatic tumor xenografts | duration of FL signal retention in TLR2 expressing tumor xenografts ([5]; post-injection, dose not stated): up to 96 h
